Measured values taken from PMC10905675, “INX-315, a Selective CDK2 Inhibitor, Induces Cell Cycle Arrest and Senescence in Solid Tumors” (Cancer Discovery, 2023).
Where two headings read alike, the source gives them in different places.

Key:
CDK2/cyclin A1/E1/O = CDK2/cyclin A1/E1/O (Homo sapiens, UniProt P24941); experiment: SelectScreen follow-up dose-response; type: biochemical; details: dose-response 50 pmol/L to 1 µmol/L
From the text: (§1) INX-315 was first evaluated in the SelectScreen Biochemical Kinase Profiling at Thermo Fisher Scientific (Madison, WI). The primary screen consisted of INX-315 dosed at a single concentration of 100 nmol/L in 1% DMSO across each platform within the SelectScreen array of assays, LanthaScreen Eu Kinase Binding Assay; AdaptaScreen; and Z'LyteScreen using preestablished conditions at Thermo Fisher Scientific as shown in Supplementary Table S2. […] The follow-up screen consisted of 10-point dose–response curves for INX-315 from 1 µmol/L to 0.0495 nmol/L.

CSF1R = CSF1R (Homo sapiens, UniProt P07333); experiment: SelectScreen follow-up dose-response; type: biochemical; details: dose-response 50 pmol/L to 1 µmol/L
From the text: as §1

all other targets = experiment: SelectScreen follow-up dose-response; type: biochemical; details: dose-response 50 pmol/L to 1 µmol/L; kinases with ≥80% inhibition other than CDK2 complexes and CSF1R
From the text: as §1

CDK2/cyclin A/A1/E1/O = experiment: SelectScreen primary screen; type: biochemical; details: 100 nmol/L INX-315
From the text: as §1

[1] = tested on: CDK3/cyclin E1, CDK5 (inactive), CDK5/p25, CDK5/p35, CSF1R, MAPK15/ERK7, NTRK/TRKC, TYK2; experiment: SelectScreen primary screen; type: biochemical; details: 100 nmol/L INX-315
From the text: as §1

ST4316B PDX = experiment: PDX tumor growth; type: in vivo, mice; details: monotherapy; ribociclib 50 mg/kg per day
Description: (§2) PDX models were performed by Crown Biosciences (OV5398, GA0103, and GA0114) or XenoSTART (ST4316B). Tumor fragments from stock mice were harvested and implanted subcutaneously into the flank of NOD/SCID mice (OV5398, RRID:IMSR_JAX:001303), BALB/c nude mice (GA0103 and GA0114, RRID:IMSR_RJ:BALB-C-NUDE), or athymic nude mice (Crl:NU(NCr)-Foxn1nu, RRID:IMSR_CRL:490) (ST4316B). For CDX models, female athymic nude mice (Crl:NU(NCr)-Foxn1nu, RRID:IMSR_CRL:490) were inoculated with 1 × 10^7 50% Cultrex OVCAR3 cells in the flank. Experiments performed using MMTV-rtTA/tetO-HER2 mice were performed at the Peter MacCallum Cancer Centre. Tumor formation was induced and sustained in female mice with doxycycline as previously described ([33]). Randomization and treatment in all models began when median tumor volume reached a maximum of 300 mm^3.
(§3) Mice were treated via oral gavage. INX-315 was prepared weekly in 100% PEG400; abemaciclib was prepared as previously described ([33]) and ribociclib (Selleckchem, S7440) was prepared weekly in 0.5% methyl cellulose. To generate abemaciclib-resistant MMTV-rtTA/tetO-HER2 tumors, mice were treated continuously with abemaciclib at a dose of 75 mg/kg until tumors resumed growth as described in text. At this point and in all other MMTV-rtTA/tetO-HER2 mice experiments, mice were randomized into treatment groups and abemaciclib was administered to indicated groups at a dose of 50 mg/kg. In all MMTV-rtTA/tetO-HER2 mice experiments, INX-315 was administered at a dose of 50 mg/kg twice daily. For PDX model ST4316B, ribociclib was administered at 50 mg/kg per day.

[2] = tested on: gastric adenocarcinoma PDX GA0103; experiment: PDX tumor growth; type: in vivo, mice; details: oral gavage, 56 days
Description: as §2, §3

[3] = tested on: gastric adenocarcinoma PDX GA0114; experiment: PDX tumor growth; type: in vivo, mice; details: 100 mg/kg twice daily, 5-week experiment
Description: as §2, §3

[4] = Body weight of tumor-bearing mice; type: in vivo; details: mice treated with INX-315, CCNE1-amplified models
Description: as §2
Mice were treated via oral gavage. INX-315 was prepared weekly in 100% PEG400; abemaciclib was prepared as previously described ([33]) and ribociclib (Selleckchem, S7440) was prepared weekly in 0.5% methyl cellulose. To generate abemaciclib-resistant MMTV-rtTA/tetO-HER2 tumors, mice were treated continuously with abemaciclib at a dose of 75 mg/kg until tumors resumed growth as described in text. […]

MCF7 Abema-resistant = experiment: Cell number dose-response; type: cell-based; details: Homo sapiens, MCF7, read-out: IC50 (nmol/L): MCF7
From the text: (§4) MCF7 abemaciclib-resistant cells were generated by continuous treatment with abemaciclib at a concentration of 250 nmol/L for 72 days, followed by 500 nmol/L for 48 days. MCF7 fulvestrant-resistant cells were generated by continuous treatment of 100 nmol/L Fulvestrant for 125 days. MCF7 abemaciclib/fulvestrant-resistant cells were generated by treating abemaciclib-resistant cells continuously with 100 nmol/L fulvestrant for 137 days. T47D abemaciclib-resistant lines were generated by continuous treatment with abemaciclib at a concentration of 500 nmol/L for 73 days. T47D fulvestrant–resistant cells were generated by continuous treatment with 100 nmol/L fulvestrant for 68 days. T47D abemaciclib/fulvestrant-resistant cells were generated by treating abemaciclib-resistant cells with continuous treatment of 100 nmol/L Fulvestrant for 60 days. Resistant cell lines were cultured in medium containing drug(s) that the line is resistant to and further authenticated using short tandem repeat profiling.
(§5) An exception to this is MCF7PDRCl5-1 cells which were first cultured for 5 days without palbociclib then plated as described. MCF7PDRCl5-1 cells were treated with either a dose curve of the indicated CDK4/6i or a dose curve of INX-315 + 1 µmol/L of the indicated CDK4/6i. Cell viability was determined using the CellTiter-Glo assay (Promega, G9241) following manufacturer's instructions. Plates were processed on either BioTek Synergy2 multi-mode (Agilent) or ClarioSTAR (BMG Labtech) plate readers. T47D and MCF7 cells were seeded into […] plates using BioTek 406 (Aglient) and treated with a ten-point dose concentration from 10 µmol/L to 0.3 nmol/L of INX-315 for 2× doubling times. Plates were fixed with 4% PFA and stained with Rhodamine-Phalloidin (Bio-Trend, 00027) and DAPI (5 mg/mL, Invitrogen, catalog no. D1306). Plates were imaged using CellInsight CX7 LZR and DAPI-positive cells were counted using Thermo Fisher Scientific HCS Studio Cell Analysis Software.

MCF7 Fulv-resistant = experiment: Cell number dose-response; type: cell-based; details: Homo sapiens, MCF7, read-out: IC50 (nmol/L): MCF7
From the text: as §4, §5

MCF7 Parent = experiment: Cell number dose-response; type: cell-based; details: Homo sapiens
From the text: as §4, §5

T47D Abema-resistant = experiment: Cell number dose-response; type: cell-based; details: Homo sapiens, read-out: IC50 (nmol/L): T47D
From the text: as §4, §5

T47D Fulv-resistant = experiment: Cell number dose-response; type: cell-based; details: Homo sapiens, read-out: IC50 (nmol/L): T47D
From the text: as §4, §5

T47D Parent = experiment: Cell number dose-response; type: cell-based; details: Homo sapiens
From the text: as §4, §5

CSF1R, sequence (P07333 20-972): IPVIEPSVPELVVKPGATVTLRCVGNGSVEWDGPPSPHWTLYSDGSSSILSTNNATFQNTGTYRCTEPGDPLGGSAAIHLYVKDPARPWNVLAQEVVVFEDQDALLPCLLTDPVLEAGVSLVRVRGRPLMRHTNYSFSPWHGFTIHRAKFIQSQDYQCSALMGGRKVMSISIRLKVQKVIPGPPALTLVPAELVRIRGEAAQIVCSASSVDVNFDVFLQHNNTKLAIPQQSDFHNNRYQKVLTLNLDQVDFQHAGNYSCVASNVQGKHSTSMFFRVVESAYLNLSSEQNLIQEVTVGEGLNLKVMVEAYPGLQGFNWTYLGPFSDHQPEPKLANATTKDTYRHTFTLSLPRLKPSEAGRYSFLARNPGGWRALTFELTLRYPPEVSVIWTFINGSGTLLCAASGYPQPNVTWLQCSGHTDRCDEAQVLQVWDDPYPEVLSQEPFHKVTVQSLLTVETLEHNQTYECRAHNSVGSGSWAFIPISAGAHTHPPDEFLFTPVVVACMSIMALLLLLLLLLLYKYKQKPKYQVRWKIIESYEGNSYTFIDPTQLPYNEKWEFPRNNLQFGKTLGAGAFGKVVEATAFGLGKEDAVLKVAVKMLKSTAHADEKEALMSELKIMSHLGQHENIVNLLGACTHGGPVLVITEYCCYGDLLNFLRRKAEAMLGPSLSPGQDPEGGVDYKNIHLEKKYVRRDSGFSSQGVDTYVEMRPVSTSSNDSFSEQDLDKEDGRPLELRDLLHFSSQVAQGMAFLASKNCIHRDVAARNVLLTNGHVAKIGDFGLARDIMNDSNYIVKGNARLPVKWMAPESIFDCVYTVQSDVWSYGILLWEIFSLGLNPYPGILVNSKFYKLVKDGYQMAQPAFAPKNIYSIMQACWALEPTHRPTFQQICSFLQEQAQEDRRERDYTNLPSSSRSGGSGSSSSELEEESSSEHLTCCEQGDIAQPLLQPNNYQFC

With `NS(=O)(=O)c1ccc(Nc2ncc3cc4n(c3n2)C2(CCCCC2)C(=O)NN4)cc1` [INX-315] the IC50 (CDK2/cyclin A1/E1/O) was ≤ 4 nM, the IC50 (CSF1R) was 2.29 nM and the IC50 (all other targets) was > 10 nM. The “inhibition of CDK2/cyclin A/A1/E1/O” value (CDK2/cyclin A/A1/E1/O) was ≥ 94%, the “inhibition of CDK3/cyclin E1, CDK5 (inactive), CDK5/p25, CDK5/p35, CSF1R, MAPK15/ERK7, NTRK/TRKC, TYK2” value [1] was ≥ 80% and the tumor growth (ST4316B PDX) was “slowed tumor growth modestly”. For the same molecule, the tumor growth ([2]; 100 mg/kg twice daily) was “tumor regression”, the tumor growth ([2]; all other treatment groups: 25, 50 mg/kg twice daily, 100 mg/kg once a day) was “significant growth inhibition” and the tumor growth [3] was “significantly inhibited”. For the same molecule, the “loss of body weight during the studies” value [4] was ≤ 5%, the IC50 (MCF7 Abema-resistant) was 45 nmol/L and the IC50 (MCF7 Fulv-resistant) was 3470 nmol/L. The IC50 (MCF7 Parent; MCF7, read-out: IC50 (nmol/L): MCF7, Parent + abema: 500 nmol/L abemaciclib concurrently) was 515 nmol/L, the IC50 (MCF7 Parent; MCF7, read-out: IC50 (nmol/L): MCF7, Parent cells in DMSO) was 267 nmol/L and the IC50 (T47D Abema-resistant) was 7.4 nmol/L. For the same molecule, the IC50 (T47D Fulv-resistant) was 106 nmol/L, the IC50 (T47D Parent; read-out: IC50 (nmol/L): T47D, Parent + abema: 500 nmol/L abemaciclib concurrently) was 332 nmol/L and the IC50 (T47D Parent; read-out: IC50 (nmol/L): T47D, Parent cells in DMSO) was 360 nmol/L.
